The source of these data is ChEMBL document CHEMBL3886764, “Acetamide derivatives” (2016).

The target of the test is Transient receptor potential cation channel subfamily A member 1 (Homo sapiens, UniProt O75762). Briefly: Dose Response Assay: Compound plates were resuspended with 100 ul of HBSS/20 mM HEPES/0.005% BSA buffer (Compound Buffer): column 1A-H: buffer/DMSO (bk); column 2A-H: AP-18 (control antagonist for CHOK1 TRPA1 cells); column 1I-P: ATP (control for CHOK1 teton cells); column 2 I-P: 2APB (control antagonist for CHOK1/TRPM8 cells). Growth media was removed from the cell plates (20 ul) and 20 ul of the Replacement Buffer was added followed by addition of 25 ul of diluted dye. All three steps were performed using a Plate Washer BioTek 407. The plates were then incubated for 30' at RT. After incubation, both the cell and compound plates were brought to the FLIPR and 20 ul of the diluted compounds/antagonist/bk were transferred to the cell plates by the FLIPR. Plates were then incubated for 30' at room temperature. After 30' incubation, plates were returned to the FLIPR and 20 ul of 4.5× Cinnamaldehyde was added to the cell plates. During the compound addition as well as agonist addition, fluorescence readings were taken simultaneously from all 384 wells of the cell plate every 1.5 seconds. Five readings were taken to establish a stable baseline, then 20 ul of sample was rapidly (30 ul/sec) and simultaneously added to each well of the cell plate. […].
Sequence of Transient receptor potential cation channel subfamily A member 1 (O75762 whole entry): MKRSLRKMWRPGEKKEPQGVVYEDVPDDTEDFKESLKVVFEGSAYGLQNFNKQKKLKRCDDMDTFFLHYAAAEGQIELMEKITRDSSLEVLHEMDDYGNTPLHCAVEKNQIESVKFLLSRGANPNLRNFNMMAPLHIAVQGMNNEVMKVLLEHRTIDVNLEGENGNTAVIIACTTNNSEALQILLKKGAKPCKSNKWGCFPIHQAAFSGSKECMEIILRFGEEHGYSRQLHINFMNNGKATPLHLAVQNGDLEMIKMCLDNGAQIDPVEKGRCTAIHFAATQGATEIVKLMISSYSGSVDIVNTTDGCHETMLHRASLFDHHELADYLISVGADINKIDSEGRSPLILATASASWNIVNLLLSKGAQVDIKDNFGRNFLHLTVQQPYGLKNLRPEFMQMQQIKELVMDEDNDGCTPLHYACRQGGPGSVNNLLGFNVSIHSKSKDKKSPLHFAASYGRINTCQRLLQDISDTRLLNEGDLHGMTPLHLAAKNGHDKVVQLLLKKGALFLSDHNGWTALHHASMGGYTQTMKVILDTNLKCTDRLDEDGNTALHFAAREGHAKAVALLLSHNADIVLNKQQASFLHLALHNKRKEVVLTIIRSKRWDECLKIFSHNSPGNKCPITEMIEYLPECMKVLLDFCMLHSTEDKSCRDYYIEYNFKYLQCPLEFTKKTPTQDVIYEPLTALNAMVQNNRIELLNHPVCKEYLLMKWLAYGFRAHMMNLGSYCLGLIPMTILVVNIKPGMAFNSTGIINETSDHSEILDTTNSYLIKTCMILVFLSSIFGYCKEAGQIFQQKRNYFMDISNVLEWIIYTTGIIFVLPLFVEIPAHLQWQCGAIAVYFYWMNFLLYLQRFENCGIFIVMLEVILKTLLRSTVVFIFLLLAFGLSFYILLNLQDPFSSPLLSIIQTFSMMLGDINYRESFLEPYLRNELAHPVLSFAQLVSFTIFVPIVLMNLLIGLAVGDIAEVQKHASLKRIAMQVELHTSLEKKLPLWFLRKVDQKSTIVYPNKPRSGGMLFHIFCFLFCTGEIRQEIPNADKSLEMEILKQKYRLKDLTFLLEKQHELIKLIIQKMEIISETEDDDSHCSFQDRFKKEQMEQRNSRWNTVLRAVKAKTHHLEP

The term IC50 denotes the concentration that gives 50% inhibition.

In turn, `CN(CC(=O)NCC1CN(c2ccc(C(F)(F)F)cc2)CCO1)S(=O)(=O)c1ccc(F)cc1` (stereo unspecified) yielded an IC50 of 1520 nM.
